Results from US20070270358A1, “Cosmetic and/or Pharmaceutical Composition for the Treatment of the Rosacea” (priority 2004, published 2007).
Read-outs that look alike come from different tables or passages of the source.

Columns and labels:
[1] = system: human keratinocytes; assay type: cell-based
Experimental: A second test, through the determination of the vitality of the cells using the MTT method, enables evaluation of the total damage suffered by the cells (in the absence of and following oxidative stress) and the protective effect produced by the substance tested in different concentrations.
Before and following exposure to UV rays, an MTT test is carried out to evaluate the toxic impact on the cell energetic system (mitochondrions) compared with cells not protected from oxidative stress a cells not exposed to stress. The MTT test is simple, accurate and gives reproducible results. This method, originally developed by Mossman […], is based on a yellow substance in solution. The mitochondrial dehydrogenize of live cells is able to cut the tetrazolium ring causing the formation of insoluble purple coloured salts. The crystals can de dissolved in acidified isopropanol and the purple solution formed can be spectrophotometrically dosed. An increase/decrease in number of the live cells can be evaluated as corresponding to the increase or decrease in the optical absorption due to formazano salts, giving a quantification of the global cytotoxic event.
(§1) • Control negative (C−): cells not treated • Control positive (C+): cells exposed to UV without protective treatment • Samples: • cells exposed to UV in the presence of protective substances: • Vitamin C 0.1 mg/ml (anti-oxidant of comparison) • SOL.—Solution 20% dimethyl sulfone
Cellular vitality as evaluated in the absence of oxidative stress (UV−) and after 5 minutes of exposure to […]
Absorption values (O.D) at 540 nm (in proportion to the number of cells). Evaluation of cellular vitality in the absence of oxidative stress

[2] = system: human keratinocytes; test: Dosage of ROS (DCF fluorescence) after UV-induced oxidative stress; assay type: cell-based; details: for anti-radical protection percentage / fluorescence, directly proportional to the quantity of ROS (average value): after 5 minutes exposure to UV
Experimental: The substance to be tested was diluted in a salt solution to the final concentrations required. The dichlorofluorescein acetate (DCF) was diluted apart in a special buffer. The DCF reacts with the free radicals if present giving rise to a fluorescent derivative, and the fluorometry reading gives a quantity related to the presence of this substance in the cells analyzed. A sufficient number of cells (30,000 cells/well) is sown in the wells of a […]. After a pre-incubation period overnight with the different sample concentrations, the culture medium is sucked out of the wells and replaced with 500 μl of DCF solution. The plates are placed in a CO2 thermo regulator at 37° C. to incubate for 15 minutes. At this point the DCF solution is discarded. After a 5 minute period of exposure to UV rays, the oxidative stress is interrupted, and the fluorometry reading taken. The lamp used in the experiments reproduces the solar spectrum with a constant UVA emission field of between 315 and 400 nm. The emission of UVB is appropriately shielded to avoid direct cytotoxic damage to the cell cultures. The plate containing the cells is irradiated at room temperature with an intensity of 1.7 mW/cm^2 of UVA […].
Reading of the fluorometry is carried out at the excitation wave length of 485 nm and emission of 530 nm directly on the plates (Toxicol. Letters 1997-93: 47-54).
as §1
The results are given in terms of fluorescence, that are directly proportional to the quantity of ROS
The anti-radical protection percentage offered by the substance is calculated using the following formula: […]

## CS(C)(=O)=O [MSM SOL. 20%, dimethyl sulfone]
[1]; 0.003 mg/ml, after 5 minutes exposure to UV (UV+)
  cellular vitality, absorption value at 540 nm (average value): 3.020 O.D
[1]; 0.01 mg/ml, after 5 minutes exposure to UV (UV+)
  cellular vitality, absorption value at 540 nm (average value): 2.977 O.D
[1]; 0.03 mg/ml, after 5 minutes exposure to UV (UV+)
  cellular vitality, absorption value at 540 nm (average value): 2.940 O.D
[1]; 0.09 mg/ml, after 5 minutes exposure to UV (UV+)
  cellular vitality, absorption value at 540 nm (average value): 2.987 O.D
[1]; 0.28 mg/ml, after 5 minutes exposure to UV (UV+)
  cellular vitality, absorption value at 540 nm (average value): 2.832 O.D
[1]; 0.83 mg/ml, after 5 minutes exposure to UV (UV+)
  cellular vitality, absorption value at 540 nm (average value): 2.838 O.D
[1]; 2.5 mg/ml, after 5 minutes exposure to UV (UV+)
  cellular vitality, absorption value at 540 nm (average value): 2.777 O.D
[1]; concentration between 0.003 and 2.5 mg/ml, versus non-treated keratinocytes
  cytoprotective activity: cellular vitality following exposure to UV radiation: cellular vitality of treated Keratinocytes is greater compared with non-treated Keratinocytes
[2]; 0.003 mg/ml
  anti-radical protection percentage: 41.2%
  fluorescence, directly proportional to the quantity of ROS (average value): 17820
[2]; 0.01 mg/ml
  anti-radical protection percentage: 37.5%
  fluorescence, directly proportional to the quantity of ROS (average value): 18887
[2]; 0.03 mg/ml
  anti-radical protection percentage: 34.8%
  fluorescence, directly proportional to the quantity of ROS (average value): 19686
[2]; 0.09 mg/ml
  anti-radical protection percentage: 43.7%
  fluorescence, directly proportional to the quantity of ROS (average value): 17117
[2]; 0.28 mg/ml
  anti-radical protection percentage: 38.3%
  fluorescence, directly proportional to the quantity of ROS (average value): 18675
[2]; 0.83 mg/ml
  anti-radical protection percentage: 44.6%
  fluorescence, directly proportional to the quantity of ROS (average value): 16848
[2]; 2.5 mg/ml
  anti-radical protection percentage: 41.4%
  fluorescence, directly proportional to the quantity of ROS (average value): 17782
[2]; concentration between 0.003 and 2.5 mg/ml
  antioxidant activity: presence of ROS in keratinocyte cultures subjected to oxidative stress: significantly reduces the presence of reactive oxygen species (ROS)

## O=C1O[C@H]([C@@H](O)CO)C(O)=C1O [VIT C, Vitamin C, reference compound]
[1]; 0.1 mg/ml, after 5 minutes exposure to UV (UV+)
  cellular vitality, absorption value at 540 nm (average value): 2.904 O.D
[1]; human, 0.1 mg/ml
  cellular vitality, absorption value at 540 nm (average value): 2.977 O.D
[2]; 0.1 mg/ml
  fluorescence, directly proportional to the quantity of ROS (average value): 20837
